According to ChEMBL document CHEMBL3797052 (Eur J Med Chem, 2016):

test system: T47D; test: Antiproliferative activity against human T47D cells assessed as growth inhibition after 48 hrs by sulforhodamine B assay; format: functional; conditions: not given

Row | Compound | GI50 [µM] | TGI [µM]
1 | CNC(=O)c1cc(Oc2ccc3nc(NC(=O)Nc4cc(C(F)(F)F)cc(C(F)(F)F)c4)sc3c2)ccn1 | 0.479 | 2.3

same assay, conditions: read-out: LC50 (the source's name)

Row | Compound | CC50 [µM]
2 | CNC(=O)c1cc(Oc2ccc3nc(NC(=O)Nc4cc(C(F)(F)F)cc(C(F)(F)F)c4)sc3c2)ccn1 | 8.47

test system: NCI-H522; test: Antiproliferative activity against human NCI-H522 cells assessed as cell growth at 10^-6 M after 48 hrs by sulforhodamine B assay; format: functional; conditions: NCI-H522, 48 h, read-out: Activity

Row | Compound | growth at 1 µM [%]
3 | CNC(=O)c1cc(Oc2ccc3nc(NC(=O)Nc4cc(C(F)(F)F)cc(C(F)(F)F)c4)sc3c2)ccn1 | 32

test system: T47D; test: Antiproliferative activity against human T47D cells assessed as cell growth at 10^-8 M after 48 hrs by sulforhodamine B assay; format: functional; conditions: read-out: Activity

Row | Compound | growth at 0.01 µM [%]
4 | CNC(=O)c1cc(Oc2ccc3nc(NC(=O)Nc4cc(C(F)(F)F)cc(C(F)(F)F)c4)sc3c2)ccn1 | 85

test system: K562; test: Antiproliferative activity against human K562 cells assessed as cell growth at 10^-7 M after 48 hrs by sulforhodamine B assay; format: functional; conditions: K562, 48 h, read-out: Activity

Row | Compound | growth at 0.1 µM [%]
5 | CNC(=O)c1cc(Oc2ccc3nc(NC(=O)Nc4cc(C(F)(F)F)cc(C(F)(F)F)c4)sc3c2)ccn1 | 97

test system: SK-MEL-28; test: Antiproliferative activity against human SK-MEL-28 cells assessed as cell growth at 10^-4 M after 48 hrs by sulforhodamine B assay; format: functional; conditions: SK-MEL-28, 48 h, read-out: Activity

Row | Compound | growth at 100 µM [%]
6 | CNC(=O)c1cc(Oc2ccc3nc(NC(=O)Nc4cc(C(F)(F)F)cc(C(F)(F)F)c4)sc3c2)ccn1 | -70

test system: not listed separately; test: Antiproliferative activity against human HCC2998 cells assessed as growth inhibition after 48 hrs by sulforhodamine B assay; format: functional; conditions: HCC 2998, 48 h

Row | Compound | GI50 [µM] | TGI [µM]
7 | CNC(=O)c1cc(Oc2ccc3nc(NC(=O)Nc4cc(C(F)(F)F)cc(C(F)(F)F)c4)sc3c2)ccn1 | 1.33 | 3.23

same assay, conditions: HCC 2998, 48 h, read-out: LC50 (the source's name)

Row | Compound | CC50 [µM]
8 | CNC(=O)c1cc(Oc2ccc3nc(NC(=O)Nc4cc(C(F)(F)F)cc(C(F)(F)F)c4)sc3c2)ccn1 | 7.85

test system: HT-29; test: Antiproliferative activity against human HT-29 cells assessed as cell growth at 10^-8 M after 48 hrs by sulforhodamine B assay; format: functional; conditions: HT-29, 48 h, read-out: Activity

Row | Compound | growth at 0.01 µM [%]
9 | CNC(=O)c1cc(Oc2ccc3nc(NC(=O)Nc4cc(C(F)(F)F)cc(C(F)(F)F)c4)sc3c2)ccn1 | 97

test system: not listed separately; test: Antiproliferative activity against human OVCAR5 cells assessed as cell growth at 10^-7 M after 48 hrs by sulforhodamine B assay; format: functional; conditions: OVCAR-5, 48 h, read-out: Activity

Row | Compound | growth at 0.1 µM [%]
10 | CNC(=O)c1cc(Oc2ccc3nc(NC(=O)Nc4cc(C(F)(F)F)cc(C(F)(F)F)c4)sc3c2)ccn1 | 98

test system: not listed separately; test: Antiproliferative activity against human NCI-ADR-RES cells assessed as cell growth at 10^-8 M after 48 hrs by sulforhodamine B assay; format: functional; conditions: read-out: Activity

Row | Compound | growth at 0.01 µM [%]
11 | CNC(=O)c1cc(Oc2ccc3nc(NC(=O)Nc4cc(C(F)(F)F)cc(C(F)(F)F)c4)sc3c2)ccn1 | 101

test system: NCI-H322M; test: Antiproliferative activity against human NCI-H322M cells assessed as cell growth at 10^-7 M after 48 hrs by sulforhodamine B assay; format: functional; conditions: read-out: Activity

Row | Compound | growth at 0.1 µM [%]
12 | CNC(=O)c1cc(Oc2ccc3nc(NC(=O)Nc4cc(C(F)(F)F)cc(C(F)(F)F)c4)sc3c2)ccn1 | 102

test system: KM12; test: Antiproliferative activity against human KM12 cells assessed as cell growth at 10^-6 M after 48 hrs by sulforhodamine B assay; format: functional; conditions: KM12, 48 h, read-out: Activity

Row | Compound | growth at 1 µM [%]
13 | CNC(=O)c1cc(Oc2ccc3nc(NC(=O)Nc4cc(C(F)(F)F)cc(C(F)(F)F)c4)sc3c2)ccn1 | 25

test system: CCRF-CEM; test: Antiproliferative activity against human CCRF-CEM cells assessed as growth inhibition after 48 hrs by sulforhodamine B assay; format: functional; conditions: not given

Row | Compound | GI50 [µM] | TGI [µM]
14 | CNC(=O)c1cc(Oc2ccc3nc(NC(=O)Nc4cc(C(F)(F)F)cc(C(F)(F)F)c4)sc3c2)ccn1 | 1.07 | 5.83

same assay, conditions: read-out: LC50 (the source's name)

Row | Compound | CC50 [µM]
15 | CNC(=O)c1cc(Oc2ccc3nc(NC(=O)Nc4cc(C(F)(F)F)cc(C(F)(F)F)c4)sc3c2)ccn1 | > 100

test system: ACHN; test: Antiproliferative activity against human ACHN cells assessed as cell growth at 10^-8 M after 48 hrs by sulforhodamine B assay; format: functional; conditions: read-out: Activity

Row | Compound | growth at 0.01 µM [%]
16 | CNC(=O)c1cc(Oc2ccc3nc(NC(=O)Nc4cc(C(F)(F)F)cc(C(F)(F)F)c4)sc3c2)ccn1 | 94

test system: not listed separately; test: Antiproliferative activity against human NCI-ADR-RES cells assessed as cell growth at 10^-4 M after 48 hrs by sulforhodamine B assay; format: functional; conditions: read-out: Activity

Row | Compound | growth at 100 µM [%]
17 | CNC(=O)c1cc(Oc2ccc3nc(NC(=O)Nc4cc(C(F)(F)F)cc(C(F)(F)F)c4)sc3c2)ccn1 | -49

test system: not listed separately; test: Antiproliferative activity against human RPMI8226 cells assessed as cell growth at 10^-6 M after 48 hrs by sulforhodamine B assay; format: functional; conditions: RPMI-8226, 48 h, read-out: Activity

Row | Compound | growth at 1 µM [%]
18 | CNC(=O)c1cc(Oc2ccc3nc(NC(=O)Nc4cc(C(F)(F)F)cc(C(F)(F)F)c4)sc3c2)ccn1 | 51

test system: K562; test: Antiproliferative activity against human K562 cells assessed as growth inhibition after 48 hrs by sulforhodamine B assay; format: functional; conditions: K562, 48 h

Row | Compound | GI50 [µM] | TGI [µM]
19 | CNC(=O)c1cc(Oc2ccc3nc(NC(=O)Nc4cc(C(F)(F)F)cc(C(F)(F)F)c4)sc3c2)ccn1 | 0.784 | 4.86

same assay, conditions: K562, 48 h, read-out: LC50 (the source's name)

Row | Compound | CC50 [µM]
20 | CNC(=O)c1cc(Oc2ccc3nc(NC(=O)Nc4cc(C(F)(F)F)cc(C(F)(F)F)c4)sc3c2)ccn1 | > 100

test system: not listed separately; test: Antiproliferative activity against human LOXIMVI cells assessed as cell growth at 10^-8 M after 48 hrs by sulforhodamine B assay; format: functional; conditions: LOX IMVI, read-out: Activity

Row | Compound | growth at 0.01 µM [%]
21 | CNC(=O)c1cc(Oc2ccc3nc(NC(=O)Nc4cc(C(F)(F)F)cc(C(F)(F)F)c4)sc3c2)ccn1 | 93
